Experimental data: patent publication US20060189663A1, “Pyrrole-2,5-dithione derivatives as liver x receptor modulators” (AstraZeneca AB, priority 2003, published 2006)
pEC50: −log10 of the molar value.

System: T1, LXRalpha and/or beta
T1 construct: fused on or other part: His-tag (6xHis) on the LXR-LBD
Test: Co-activator recruitment assay (time-resolved fluorescence, LXR-LBD / SRC-1 peptide)
Type: biochemical, human
Settings: LXR isoform (alpha or beta) not stated; 22-R Hydroxycholesterol at 50 μM as 100% control; read-out: EC50 in coactivator recruitment assays
Source text: Co-Activator Recruitment Assay The Ligand Binding Domain (LBD) of human LXRalpha (amino acid 205-447) and LXRbeta (amino acid 216-461) was produced by recombinant techniques in E coli. A fragment of the human Steroid Receptor Co-Activator-1 (SRC-1) was produced as a synthetic peptide. An anti-6His-antibody coupled with Europium (Eu^3+) was used to recognize the His-tag on the LXR-LBD and Allophycocyanin (APC) coupled to streptavidin was used to recognize the biotinylated SRC-1. Agonist binding to LXRalpha or LXRbeta enhances the affinity of LXR towards SRC-1 and thereby brings Eu^3+ and APC in close proximity. Eu^3+ is excited at 337 nm and emitts light at 620 nm. This emission, when in close proximity, excites APC to emit light at 665 nm.
Dilution plates with compounds in DMSO were further diluted in buffer {20 mM [Tris(hydroxymethyl)aminomethane] pH 7.5, 0.125% CHAPS {3-[(3-Cholamidopropyl)dimethylammonio]-1-propanesulfonate}, 2 mM DTT (Dithiothreitol) and 0.05% BSA (Bovine Serum Albumin)} in order to reduce DMSO concentration, 0.5 μl to 13.5 μl. To this, 6 μl assay mix was added and the plates (384-well V-groove plates) were incubated at room temperature for 60 to 80 min. […] Time-resolved fluorescence readings were done in a Wallac Victor reader at 665 nm followed by reading at 615 nm. […]

Row | pEC50 | Structure (SMILES)
1 | 6.85 | Nc1ccc(CN2C(=S)C(Nc3ccc(OC(F)F)cc3)=C(c3ccccc3)C2=S)cn1 [Example 18, 1-[(6-Aminopyridin-3-yl)methyl]-3-{[4-(difluoromethoxy)phenyl]amino}-4-phenyl-1H-pyrrole-2,5-dithione]
2 | 7.05 | CCCCN1C(=O)C(c2ccccc2)=C(Nc2ccc(OC)cc2)C1=S [Example 7, 1-Butyl-4-[(4-methoxyphenyl)amino]-3-phenyl-5-thioxo-1,5-dihydro-2H-pyrrol-2-one]
